Legend:
[1] = test system: fibroid tumor; settings: nude mouse model; cited from earlier work
[2] = biological target: T1, Catechol-O-methyl transferase (COMT) (Homo sapiens, UniProt P21964); settings: cited from earlier work
T1 sequence (P21964 1-271): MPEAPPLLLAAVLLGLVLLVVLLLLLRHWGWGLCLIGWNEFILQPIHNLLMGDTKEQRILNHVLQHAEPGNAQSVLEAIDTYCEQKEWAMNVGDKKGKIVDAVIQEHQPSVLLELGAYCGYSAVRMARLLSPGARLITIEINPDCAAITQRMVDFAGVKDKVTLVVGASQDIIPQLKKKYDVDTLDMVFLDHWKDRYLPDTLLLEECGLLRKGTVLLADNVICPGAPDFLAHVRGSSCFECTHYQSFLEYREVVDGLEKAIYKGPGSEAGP

[3] = test system: TGF-β3; settings: human fibroid cells; cited from earlier work
[4] = test system: BMP2 gene; settings: EGCG-treated human fibroid cells; cited from earlier work
[5] = test system: Human uterine leiomyoma (HuLM) cells; assay: MTT cell proliferation / viability assay in HuLM cells; type: cell-based; settings: EGCG alone
Method: Effect of Crila® or a Crila® composition (Table 1) and/or EGCG on the Uterine Fibroid Growth: In one study, we used Human Leiomyoma (HuLM) Cells in our initial evaluation of Crila® and/or EGCG treatment. Crila®, used alone or in combination with EGCG, were evaluated for their ability to inhibit the proliferation of HuLM cells in an experimental approach as described below. Similarly, the Crila® compositions are evaluated for their ability to inhibit the proliferation of HuLM cells in an experimental approach as described below. Crila® and/or EGCG were analyzed at the various concentrations and time points specified. […] Thereafter, the extract was sterile filtered through 0.22 μm PES filter and stored at room temperature until further use. EGCG was dissolved in DMSO to make a 100 mM stock solution or in dH2O to make 10 mM stock solution. Cell proliferation assay was performed by dimethylthiazolyl diphenyltetrazolium bromide (MTT) assay. Human uterine leiomyoma (HuLM) cells were cultured in DMEM/F12 containing 10% fetal bovine serum. […] Samples were measured (from the treated wells and control wells) after 1 to 2 days, 3 days, 5 days and 7 days. […] Relative cell viability was determined by using the MTT assay. […] Absorbance was measured in Varioskan Lux microplate reader (ThermoFisher) at 570 nm. […]

O=C(O[C@@H]1Cc2c(O)cc(O)cc2O[C@@H]1c1cc(O)c(O)c(O)c1)c1cc(O)c(O)c(O)c1 [EGCG, epigallocatechin gallate]
fibroid tumor formation in vivo [1]: inhibiting fibroid tumor formation | COMT inhibitor effect [2]: potent COMT inhibitor effect | TGF-β3 production [3]: significantly decreased | increase in the expression of the BMP2 gene versus untreated control [4]: 14 fold | concentration from which HuLM cells viability is effectively reduced ([5]; after 5 days treatment): ≥ 50 µM | concentration from which HuLM cells viability is effectively reduced ([5]; after 7 days treatment): ≥ 25 µM

Reference: patent US12491227B2, “Crila® and EGCG compositions for treatment of fibroids” (Altin Biosciences Corporation, priority 2022, dated 2025)
